Experimental data from patent publication US20240327427A1, “NEW COMPOUNDS FOR THE TREATMENT OF ALZHEIMER'S DISEASE” (Icahn School of Medicine at Mount Sinai, priority 2020, published 2024).
“Also recorded” adds a separate entry of the source.

What was measured:
Assay type in all cases: cell-based, human
ATP6V1A [1] = assay: ATP6V1A mRNA expression in drug-treated NPCs (LINCS profiles); details: drug-treated vs DMSO-treated, LINCS data
Excerpt: Compounds were screened for drugs that can rescue the in vitro and in vivo phenotypes arising from ATP6V1A deficits. Using their drug repositioning tool, Ensemble of Multiple Drug Repositioning Approaches (EMUDRA) (Zhou et al., 2018b), the inventors matched the disease signature from the BM36-PHG region and the signatures of 3,629 drugs tested in the NPCs in the Library of Integrated Network-based Cellular Signatures (LINCS) project (FIG. 6A). The inventors further prioritized candidate drugs by their potential to increase the mRNA expression of ATP6V1A in the NPCs.
To identify existing drugs that can restore the molecular expression change in the LOAD brains, the inventors performed a drug repositioning analysis using EMUDRA, which provides a novel computational algorithm to match disease signatures and drug-induced signatures. The inventors downloaded drug-treated gene expression profiles (level 3 data of quantile-normalized and log 2 transformed expression levels from human iPSC-derived neural progenitor cells (NPCs) from the Library of Integrated Network-Based Cellular Signatures (LINCS) program. After removing probes sets mapping to multiple genes or without known gene annotation, the remaining data were adjusted for batch effects using linear regression. The mean expression level of multiple probe sets that match to the same gene was used as the expression level for that gene. For each drug, the applied drug signature was the transcriptome-wide expression difference between drug-treated and DMSO-treated gene expression profiles. The inventors matched each of the drug signatures to the LOAD signature using EMUDRA to find drugs that could reverse the LOAD signature. […] In total, 3,629 drug signatures were analyzed and ranked. The inventors further prioritized the top-ranked drugs that can increase ATP6V1A mRNA expression in the NPCs.

ATP6V1A [2] = assay: ATP6V1A mRNA (qRT-PCR) and protein (western blot) levels in hiPSC-derived NGN2 neurons (iNs); details: for transcriptional and translational levels of ATP6V1A: D21 iNs, concentrations between 1 and 30 μM
Description: To verify this discovery, the inventors measured the transcriptional and translational levels of ATP6V1A in D21 iNs treated with the 3 HDAC inhibitors at a series of concentrations between 1 and 30 μM.
CRISPR inhibition (CRISPRi) was used to repress endogenous ATP6V1A in hiPSC-derived NGN2 neurons. […] Next, the inventors investigated whether LQ081-166 rescued the phenotypes of ATP6V1A deficit and reduced neuronal activity.
Quantitative reverse transcription PCR (qRT-PCR) was performed as previously described. Specifically, cell cultures were harvested with Trizol and total RNA extraction was carried out following the manufacturer's instructions. Quantitative transcript analysis was performed using a QuantStudio 7 Flex Real-Time PCR System with the Power SYBR Green RNA-to-Ct Real-Time qPCR Kit (all Thermo Fisher Scientific). Total RNA template (25 ng per reaction) was added to the PCR mix, including primers listed below. qPCR conditions were as follows; 48° C. for 30 min, 95° C. for 10 min followed by 40 cycles (95° C. for 15 s, 60° C. for 60 s). All qPCR data is collected from at least 3 independent biological replicates of one experiment. Data analyses were performed using GraphPad PRISM 6 software.
Cells were rinsed with ice-cold phosphate-buffered saline (PBS), pelleted, and lyzed in RIPA Lysis and Extraction Buffer (Thermo Fisher Scientific, #89900) containing Halt™ Protease and Phosphatase Inhibitor Cocktail (Thermo Fisher Scientific, #78440). Alternatively, MSBB BM36 brain samples were homogenized with similar methods. Samples were sonicated for 1 minute then centrifuged at 13,000× rpm for 10 min. The supernatant was collected, and total protein concentration was determined using Quick Start™ Bradford Protein Assay (Bio-Rad, 5000201) following the manufacturer's instructions.
Images were captured and quantified using the Odyssey® Imaging Systems (LI-COR. Inc.).
(§1) A stock solution of LQ081-166 (molecular weight: 452.63) at 3 mM is prepared in dimethyl sulfoxide (DMSO). Once prepared, aliquot the stock solution into 100 μL amounts and store at −80° C. Avoid repeated freeze-thaw cycles. The stock is diluted 1000× into neuronal medium to obtain 3 μM for assays. After 24-hour treatment, RNA was extracted from cells for quantitative PCR. In the MEA assay, LQ081-166 was added on neuronal differentiation day 14. Replace with medium containing drug or vehicle every 2-3 days until the final recording day.

ATP6V1A [3] = assay: ATP6V1A gene expression-based compound screening (qRT-PCR) in hiPSC-derived NPCs; details: for ATP6V1A mRNA level / gene expression: hiPSC-derived NPCs, qRT-PCR vs DMSO
Excerpt: Thirty nine new compounds were synthesized by chemical synthesis and evaluated for their capability to elevate the mRNA level of ATP6V1A and the neuronal activities in hiPSC-derived NPCs. […] These disclosures indicate that the chemical structure to the right in LQ081-166 has a structure-activity relationship necessary for ATP6V1A activation.
To identify useful drugs for targeting this novel therapeutic target, the inventors synthesized 39 new compounds by chemical synthesis and evaluated their capability of elevating the mRNA level of ATP6V1A and neuronal activity in hiPSC-derived NPCs.
To improve the potency and efficacy of the drugs, an additional 18 derivatives based on LQ081-166 were synthesized (FIG. 7B). […] The inventors determined that the thioester and benzyl group in LQ081-166 has a structure-activity relationship necessary for ATP6V1A activation.
FIG. 7. ATP6V1A gene expression-based compounds screening. (A) qRT-PCR analysis (N=3-12) to determine the relative changes in ATP6V1A gene expression after exposure to 40 chemical compounds. ****, p<0.0001 (one-way ANOVA). DMSO serves as vehicle control. (B) Molecular modification of LQ081-166 and chemical structure of LQ108-32. (C) qRT-PCR analysis of relative ATP6V1A gene expression after exposure to LQ081-166 derivatives. Grey scale bars in the graph are associated with the categories of molecular modification. Note that LQ108-51/52/53 is a small pool of three LQ081-166 derivatives. (D) Effects of LQ081-166 at 0.3, 1, 3, and 10 μM on ATP6V1A mRNA level after 24-h exposure. *, p<0.05; **, p<0.01 (one-way ANOVA).
Quantitative reverse transcription PCR (qRT-PCR) was performed as previously described. […] Quantitative transcript analysis was performed using a QuantStudio 7 Flex Real-Time PCR System with the Power SYBR Green RNA-to-Ct Real-Time qPCR Kit (all Thermo Fisher Scientific). […]
A stock solution of LQ081-166 (molecular weight: 452.63) at 3 mM is prepared in dimethyl sulfoxide (DMSO). […] After 24-hour treatment, RNA was extracted from cells for quantitative PCR. […]

[4] = test system: hiPSC-derived NGN2 neurons; assay: Multi-electrode array (MEA) neuronal activity
Description: To evaluate electrical activity of NGN2-neurons by MEA, density-matched isogenic NGN2-neuronal populations, co-cultured with pHAs, were prepared as described above. Specifically, at day 3, pHAs were split as 17,000 cells/well in a Matrigel-coated 48W MEA plate (Axion Biosystems, M768-tMEA-48W) and maintained as above. At day 7, NGN2-neurons were detached, spun down and seeded on the pHA culture. Outer space of each well in the plate was filled up with autoclaved/deionized water to minimize the evaporation of marginal wells (“edge effect”) during long-term culture. Half volume of neuronal medium (supplemented with 2% FBS) was replaced with fresh medium including 200 nM Ara-C from day 9 until the end of MEA recording. Electrical activity of neurons was recorded daily during day 14-24. On the recording day, the plate was loaded into the Axion Maestro MEA reader (Axion Biosystems). Recording was performed via AxiS 2.4 for 10 mins. Quantitative analysis of the recording was exported as a Microsoft excel sheet. Data were analyzed using GraphPad PRISM 6 software.
as §1

SMILES | ATP6V1A (log2FC) (ATP6V1A [1]) | further results
CC[C@H]1CN2CCc3cc(OC)c(OC)cc3C2C[C@@H]1CC1NCCc2cc(OC)c(OC)cc21 (stereo partly shown) [BRD-A25687296] | 2.37 | 
C[C@]12CC[C@H]3[C@@H](CC[C@]4(O)C[C@@H](O)CC[C@]34C=O)[C@@]1(O)CC[C@@H]2C1=CC(=O)OC1 [BRD-K84595254] | 2.98 | 
Nc1ccccc1NC(=O)c1ccc(CNC(=O)OCc2cccnc2)cc1 [BRD-K77908580] | 1.54 | 
CN(C)c1ccc(C(=O)NCCCCCCC(=O)NO)cc1 [m-344] | 0.84 | 
CC(/C=C/C(=O)NO)=C\[C@@H](C)C(=O)c1ccc(N(C)C)cc1 [trichostatin a] | 0.61 | 
CC[C@H]1CN2CCc3cc(OC)c(OC)cc3[C@@H]2C[C@@H]1C[C@H]1NCCc2cc(O)c(OC)cc21 [BRD-K80348542] | 1.09 | 
CCC(=O)CCCCC[C@@H]1NC(=O)[C@H]2CCCCN2C(=O)[C@H]([C@@H](C)CC)NC(=O)[C@H](Cc2cn(OC)c3ccccc23)NC1=O [apicidin] | 0.99 | 
C[C@@H]1CN([C@@H](C)CO)C(=O)c2cccc(NC(=O)c3ccc(-c4nccs4)cc3)c2O[C@@H]1CN(C)Cc1ccc(C(=O)Nc2ccccc2N)cc1 [BRD-K56196992] | 1.47 | 
O=C(CCCCCCC(=O)Nc1ccccc1)NO [SAHA] | 0.77 | transcriptional and translational levels of ATP6V1A (ATP6V1A [2]): ineffective
O=C(CCCCCCC(=O)SCCc1ccccc1)Nc1nc(-c2ccccc2)cs1 [LQ108-32, S-phenethyl 8-oxo-8-((4-phenylthiazol-2-yl)amino)octanethioate] |  | ATP6V1A mRNA level / gene expression (ATP6V1A [3]; listed as LQ081-32): did not affect; also recorded: inability to affect
Nc1ccccc1NC(=O)c1ccc(CNC(=O)OCc2cccnc2)cc1 [MS-275] |  | transcriptional and translational levels of ATP6V1A (ATP6V1A [2]): ineffective
O=C(CCCCCCSC(=O)CCc1ccccc1)Nc1nc(-c2ccccc2)cs1 [LQ081-166, S-(7-oxo-7-((4-phenylthiazol-2-yl)amino)heptyl) 3-phenylpropanethioate] |  | restoration of neuronal activity (MEA) ([4]; ATP6V1A KD neurons, regardless of presence/absence of Aβ exposure, 3 μM): partially restoring neuronal activity; neuronal activity (MEA) ([4]; NGN2 neurons, 3 μM LQ081-166): potent activator of neuronal activity; dose dependence of effect on ATP6V1A mRNA level (ATP6V1A [3]; 0.3, 1, 3 and 10 μM, 24-h exposure): dose-dependent effect; ATP6V1A mRNA level / gene expression (ATP6V1A [3]): most significantly increased; ATP6V1A mRNA level (ATP6V1A [2]; ATP6V1A KD hiPSC-derived NGN2 neurons): restores ATP6V1A mRNA level; ATP6V1A mRNA level (ATP6V1A [2]; NGN2 neurons, 3 μM, 24 hours): significantly increased
C[C@@H]1O[C@@H](O[C@@H]2C=C3CCC4C(CC[C@]5(C)[C@@H](c6ccc(=O)oc6)CC[C@]45O)[C@@]3(C)CC2)[C@H](O)[C@H](O)[C@H]1O (stereo partly shown) [BRD-A34806832] | 1.49 | 
O=C(CCCCCN1C(=O)c2cccc3cccc(c23)C1=O)NO [scriptaid] | 0.78 | 
CC1CC(C)C(=O)C(C(O)CC2CC(=O)NC(=O)C2)C1 (stereo not shown) [BRD-A62184259] | 1.46 | 
C[C@@H]1C[C@@H]([C@H](O)CC2CC(=O)NC(=O)C2)C(=O)[C@@H](C)C1 [BRD-K36055864] | 2.00 | 
